Reference: paper PMC11204923, “Marine Cytotoxin Santacruzamate A Derivatives as Potent HDAC1-3 Inhibitors and Their Synergistic Anti-Leukemia Effects with Venetoclax” (Marine Drugs, 2024)

Legend:
[1] = molecular target: T1, HDAC1 (Homo sapiens, UniProt Q13547); test: In vitro HDAC inhibition fluorescence assay, HDAC1; type: biochemical; conditions: for inhibition at 0.01 µM: 10 nM; for inhibition at 0.01 µM / inhibition at 0.1 µM: read-out: Inhibition Rate of HDAC1 (%); for inhibition at 0.1 µM: 100 nM
T1 construct: purchased BPS Bioscience
Method: (§1) All of the HDAC enzymes were purchased from BPS Bioscience. In vitro HDAC inhibition assays were conducted as previously described. In brief, 20 μL of recombinant HDAC enzyme solution (HDAC1-9, 11) was mixed with various concentrations of the tested compound (20 μL). […] After incubation at 37 °C for 2 h, the catalysis was stopped by the addition of 10 μL of developer containing 30 mg/mL trypsin and 6 μM trichostatin A (TSA). Then, 30 min later, the fluorescence intensity was measured using a microplate reader at excitation and emission wavelengths of 360 and 460 nm, respectively. The inhibition ratios were calculated from the fluorescence intensity readings of tested wells relative to those of control wells, and the IC50 curves and values were determined by GraphPad Prism 6.0, using the “log(inhibitor) vs. normalized response-variable slope” function.

[2] = molecular target: T2, HDAC2 (Homo sapiens, UniProt Q92769); test: In vitro HDAC inhibition fluorescence assay, HDAC2; type: biochemical
T2 construct: purchased BPS Bioscience
Method: as §1

[3] = molecular target: T3, HDAC3 (Homo sapiens, UniProt O15379); test: In vitro HDAC inhibition fluorescence assay, HDAC3; type: biochemical; conditions: for inhibition at 0.01 µM: 10 nM; for inhibition at 0.01 µM / inhibition at 0.1 µM: read-out: Inhibition Rate of HDAC3 (%); for inhibition at 0.1 µM: 100 nM
T3 construct: purchased BPS Bioscience
Method: as §1

[4] = tested on: MV4-11 cells; test: Cell viability assay (resazurin), MV4-11; type: cell-based; conditions: Homo sapiens, MV4-11, 72 h; read-out: IC50 anti-proliferative activity MV4-11
Method: (§2) The AML cell lines MV4-11, THP-1, KASUMI-1 and HL-60 were purchased from Procell Life Science & Technology Co., Ltd. (Wuhan, China). THP-1 and KASUMI-1 were cultured in RPMI-1640 complete medium containing 10% fetal bovine serum and 1% penicillin and streptomycin. MV4-11 was cultured in IMDM complete medium containing 10% fetal bovine serum and 1% penicillin and streptomycin. HL-60 was cultured in IMDM complete medium containing 20% fetal bovine serum and 1% penicillin and streptomycin. All cell lines were cultured in an incubator with humidity set at 95%, temperature at 37 °C and 5% CO2.
(§3) MV4-11, THP-1, KASUMI-1 and HL-60 cells were plated in 96-well transparent plates (10,000 to 15,000 cells/100 μL) and after incubation overnight, cells were treated with gradient-diluted inhibitors with several concentrations. After the cells were incubated with inhibitors for 72 h, 1 mg/mL of Resazurin (Sigma-Aldrich, Saint Louis, MO, USA) was added (working concentration was 0.1 mg/mL). After incubation at 37 °C for about 3 h, the fluorescence intensity of […] was measured at 560 nm/590 nm (excitation/emission) with a Spectra Max i3 Microplate Reader, and the cell viability was determined. The IC50 curve was drawn using GraphPad Prism 9.5 software.

[5] = tested on: THP-1 cells; test: Cell viability assay (resazurin), THP-1; type: cell-based; conditions: Homo sapiens, THP-1, 72 h; read-out: IC50 anti-proliferative activity THP-1
Method: as §2, §3

[6] = tested on: HL-60 cells; test: Cell viability assay (resazurin), HL-60; type: cell-based; conditions: Homo sapiens, HL-60, 72 h; read-out: IC50 anti-proliferative activity HL-60
Method: as §2, §3

[7] = tested on: Kasumi-1 cells; test: Cell viability assay (resazurin), Kasumi-1; type: cell-based; conditions: Homo sapiens, Kasumi 1, 72 h; read-out: IC50 anti-proliferative activity Kasumi-1
Method: as §2, §3

[8] = tested on: MV4-11 cells; test: Microdilution checkerboard assay, 25c combined with Venetoclax; type: cell-based; conditions: Homo sapiens, 72 h, read-out: Inhibition Rate (%)
Method: The inhibition effect of 25c combined with Venetoclax on the proliferation of MV4-11 cells was determined by microdilution checkerboard assay. CompuSyn software was used to calculate the combined action index of the two compounds, and the cell inhibition rates of the two compounds acting alone and the combined action were input to calculate the combination index (CI) to evaluate the synergistic effect of the drugs. A CI value less than 1 indicates a synergistic effect, a CI value equal to 1 indicates an additive effect and a CI value greater than 1 indicates an antagonistic effect.

[9] = tested on: MV4-11 cells; test: Western blot analysis; type: cell-based; conditions: Venetoclax monotherapy, 24 h
Method: MV4-11 cells were inoculated into 12-well plates at a density of 800,000 cells/mL. After incubation overnight, each well was treated with different concentrations of 25c and Venetoclax alone or in combination. After treatment for 24 h, the cells were collected and washed with pre-cooled PBS. A protease inhibitor (cocktail) and RIPA buffer were added for cell lysis. The decomposed solution was centrifuged at 12,000 rpm for 15 min at 4 °C, and the extracted protein was located in the supernatant. The proteins in each sample were denatured by heating at 100 °C in loading buffer (5×) for 10 min. The same amount of proteins in each sample was separated by SDS-PAGE and then electrotransferred to a PVDF membrane (Merck Millipore, Billerica, MA, USA) and enclosed in 5% skim milk powder for 1 h. The primary antibody diluted with an immune response booster solution was incubated in a shaking bed at 4 °C overnight, and the horseradish (HRP)-conjugated second antibody diluted with 5% skim milk powder was incubated at room temperature for 1 h on the second day. After the PVDF membrane was washed with TBST, the target protein bands could be detected with chemiluminescent reagents (Millipore, Billerica, MA, USA) and visualized in the Tanon 5200 + fluorescence imager.
The primary antibodies Caspase 3 (including Cleaved Caspase-3) (sc-56053), Mcl-1 (94296S), Bcl-xL (ab98143), γ-H2AX (9718S), AcHH3 (Lys27) (8173S), AcHH4 (sc-377520), HH3 (ab1791), Ac-tubulin (sc-23950), HDAC6 (sc-28386), α-tubulin (sc-23948), GAPDH (sc-59540) and β-actin (8H10D10) were purchased from Abcam, Cell Signaling Technology and Santa Cruz Biotechnology.

[10] = tested on: MV4-11, THP-1, HL60 and Kasumi-1 cells; test: Cell viability assay, four AML cell lines together; type: cell-based; conditions: synthesized SCA
Method: as §2, §3

T1 sequence (Q13547 whole entry): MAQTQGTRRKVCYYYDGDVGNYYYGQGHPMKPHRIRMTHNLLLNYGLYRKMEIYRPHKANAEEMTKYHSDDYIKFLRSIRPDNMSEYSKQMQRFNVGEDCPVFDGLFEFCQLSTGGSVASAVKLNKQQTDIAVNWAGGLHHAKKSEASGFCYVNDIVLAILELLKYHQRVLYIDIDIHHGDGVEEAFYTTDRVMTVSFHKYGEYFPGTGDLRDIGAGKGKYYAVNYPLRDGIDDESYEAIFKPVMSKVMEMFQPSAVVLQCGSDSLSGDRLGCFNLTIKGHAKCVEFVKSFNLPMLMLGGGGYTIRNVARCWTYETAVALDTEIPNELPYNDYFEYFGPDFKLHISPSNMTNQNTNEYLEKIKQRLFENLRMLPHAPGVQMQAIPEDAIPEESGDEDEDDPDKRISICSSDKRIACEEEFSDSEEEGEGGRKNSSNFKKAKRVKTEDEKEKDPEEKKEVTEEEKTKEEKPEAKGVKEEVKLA
T3 sequence (O15379 whole entry): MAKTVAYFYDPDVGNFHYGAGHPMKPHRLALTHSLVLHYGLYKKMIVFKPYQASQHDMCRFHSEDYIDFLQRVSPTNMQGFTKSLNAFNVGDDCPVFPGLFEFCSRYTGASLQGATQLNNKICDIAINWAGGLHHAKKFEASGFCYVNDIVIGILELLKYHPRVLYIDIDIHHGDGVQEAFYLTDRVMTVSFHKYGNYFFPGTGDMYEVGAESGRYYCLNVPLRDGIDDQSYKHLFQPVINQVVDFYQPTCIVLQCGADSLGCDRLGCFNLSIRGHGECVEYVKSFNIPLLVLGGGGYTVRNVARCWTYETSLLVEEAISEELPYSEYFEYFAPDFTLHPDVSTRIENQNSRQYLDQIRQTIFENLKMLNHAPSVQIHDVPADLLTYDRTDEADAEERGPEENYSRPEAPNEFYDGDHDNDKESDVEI
T3 sequence (Q9Y618 395-489 partner limits assumed): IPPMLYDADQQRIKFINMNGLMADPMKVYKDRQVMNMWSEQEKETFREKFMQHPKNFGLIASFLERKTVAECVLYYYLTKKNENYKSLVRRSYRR
T2 sequence (Q92769 whole entry): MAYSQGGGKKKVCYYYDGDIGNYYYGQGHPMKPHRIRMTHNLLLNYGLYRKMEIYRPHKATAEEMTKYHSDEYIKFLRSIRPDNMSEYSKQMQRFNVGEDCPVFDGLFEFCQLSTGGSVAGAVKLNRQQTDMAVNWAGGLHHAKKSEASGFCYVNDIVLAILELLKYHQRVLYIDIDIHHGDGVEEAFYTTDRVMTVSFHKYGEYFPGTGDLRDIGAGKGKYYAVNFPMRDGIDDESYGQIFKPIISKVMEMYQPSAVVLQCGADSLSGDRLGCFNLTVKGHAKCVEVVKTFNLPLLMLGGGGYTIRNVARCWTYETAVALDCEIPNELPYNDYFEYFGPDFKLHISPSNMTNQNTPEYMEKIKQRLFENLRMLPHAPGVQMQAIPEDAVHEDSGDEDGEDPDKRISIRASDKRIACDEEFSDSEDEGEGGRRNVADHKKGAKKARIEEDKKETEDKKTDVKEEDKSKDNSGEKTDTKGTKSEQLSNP

SMILES	IC50 [1] [nM]	inhibition at 0.01 µM [1] [%]	inhibition at 0.1 µM [1] [%]	IC50 [2] [nM]	IC50 [3] [nM]	inhibition at 0.01 µM [3] [%]	inhibition at 0.1 µM [3] [%]	IC50 [4] [nM]	IC50 [5] [nM]	IC50 [6] [nM]	IC50 [7] [nM]	inhibition at 0.04 µM ([8]; Venetoclax 0.04 μM alone) [%]	inhibition at 0.08 µM ([8]; Venetoclax 0.08 μM alone) [%]	inhibition at 0.15 µM ([8]; Venetoclax 0.15 μM alone) [%]	level of cleaved-caspase3 [9]	enzyme inhibitory activity, HDAC1 ([1]; screening at 100 nM and 10 nM)	enzyme inhibitory activity, HDAC3 ([3]; screening at 100 nM and 10 nM)	anti-proliferative inhibitory activity in four AML cell lines [10]
CCCNNC(=O)C=Cc1ccc(CNCc2ccccc2)cc1 [Compound 25b, 3-(4-((Benzylamino)methyl)phenyl)-N′-propylacrylohydrazide]	27 ± 2	21.8 ± 1.6	77 ± 0.3	111 ± 16.9	2.7 ± 0.6	94.8 ± 0.1	97.9 ± 0.2	362 ± 76.8	516 ± 145	736 ± 24.8	448 ± 122	–	–	–	–	–	–	–
CC1(C)CCC(CN2CCN(c3ccc(C(=O)NS(=O)(=O)c4ccc(NCC5CCOCC5)c([N+](=O)[O-])c4)c(Oc4cnc5[nH]ccc5c4)c3)CC2)=C(c2ccc(Cl)cc2)C1 [Venetoclax]	–	–	–	–	–	–	–	–	–	–	–	36.5	62.3	78.5	slightly higher	–	–	–
Nc1ccccc1NC(=O)c1ccc(CNC(=O)OCc2cccnc2)cc1 [Entinostat, reference compound]	–	3.8 ± 1.1	37.6 ± 2.6	–	–	–	–	651 ± 37.4	1520 ± 218	1100 ± 51.5	480 ± 161	–	–	–	–	–	–	–
CCCNNC(=O)C=Cc1ccc(CNCc2cccc3ccccc23)cc1 [Compound 25g, 3-(4-(((Naphthalen-1-ylmethyl)amino)methyl)phenyl)-N′-propylacrylohydrazide]	16 ± 1	33.9	76.5 ± 5	46.3 ± 4.1	–	45.9	71.1 ± 1.6	582 ± 240	1020 ± 498	650 ± 247	1010 ± 643	–	–	–	–	–	–	–
CCCNNC(=O)C=Cc1ccc(CNC2Cc3ccccc3C2)cc1 [Compound 25e, 3-(4-(((2,3-Dihydro-1H-inden-2-yl)amino)methyl)phenyl)-N′-propylacrylohydrazide]	36.5 ± 5	10.9 ± 1.2	78.7 ± 0.7	161 ± 29	3.1 ± 1.5	94.8 ± 0.5	95.6 ± 0.2	353 ± 119	451 ± 73.8	502 ± 189	380 ± 147	–	–	–	–	–	–	–
CCOC(=O)NCCCC(=O)NCCc1ccccc1 [SCA, Santacruzamate A]	–	–	–	–	–	–	–	> 10000	> 10000	> 10000	> 10000	–	–	–	–	no activity	no activity	no inhibitory activity was detected
